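Each compound was tested at five concentrations against cells in 96-well plates for 48 hours. Here, GI50 denotes the concentration required for 50% inhibition of growth. Definition used: TGI = concentration required for complete inhibition of growth.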
Legend:
Experiment in all cases: inhibition of tumour cell growth, NCI panel, 48 h
EKVX NSCLC = system: EKVX NSCLC
HCT-15 colon = system: HCT-15 colon
LOX IMVI melanoma = system: LOX IMVI melanoma
M14 melanoma = system: M14 melanoma
MDA-MB-435 = system: MDA-MB-435
NCI-H226 lung = system: NCI-H226 lung
NCI-H522 lung = system: NCI-H522 lung
RPMI-8226 leukemia = system: RPMI-8226 leukemia
SF-539 CNS = system: SF-539 CNS
SK-MEL-28 melanoma = system: SK-MEL-28 melanoma
T-47D breast = system: T-47D breast
MDA-N = system: MDA-N

SMILES	TGI (EKVX NSCLC) [µM]	TGI (HCT-15 colon) [µM]	TGI (LOX IMVI melanoma) [µM]	TGI (M14 melanoma) [µM]	TGI (MDA-MB-435) [µM]	TGI (NCI-H226 lung) [µM]	TGI (NCI-H522 lung) [µM]	TGI (RPMI-8226 leukemia) [µM]	TGI (SF-539 CNS) [µM]	TGI (SK-MEL-28 melanoma) [µM]	TGI (T-47D breast) [µM]	TGI (MDA-N) [µM]	GI50 (MDA-MB-435) [nM]	GI50 (NCI-H226 lung) [µM]	GI50 (SF-539 CNS) [µM]	GI50 (SK-MEL-28 melanoma) [nM]	GI50 (HCT-15 colon) [µM]	GI50 (LOX IMVI melanoma) [µM]	GI50 (M14 melanoma) [µM]	GI50 (NCI-H522 lung) [µM]
O=C(O)CCC1(CCC(=O)O)CCCCCCCCC(CCC(=O)O)(CCC(=O)O)C(=O)C1=O	> 100	> 100	> 100	> 100	> 100	> 100	> 100	> 100	> 100	> 100	> 100	–	–	–	–	–	–	–	–	–
COc1cc2c(c(OC)c1)C(=O)C(=O)C(CC1(C)OCCCO1)=C2	29.6	17	12.9	24.3	–	19.6	2.7	> 100	32	28.6	–	–	–	–	–	–	–	–	–	–
COc1cc2cnc3c4cc(O)ccc4ccc3c2cc1OC	> 100	> 100	> 100	> 100	–	> 100	70.9	> 100	> 100	> 100	–	–	–	–	–	–	–	–	–	–
CCOC(OCC)[C@@H]1C[C@@H]2N(O[C@H](OC3CCCC3(c3ccccc3)c3ccccc3)[C@H](OC(C)=O)[C@@]2(CC)Cc2ccc(OC)c(OC)c2)O1 (stereo not given in full)	> 100	> 100	> 100	> 100	> 100	> 100	> 100	–	> 100	> 100	> 100	> 100	–	–	–	–	–	–	–	–
CCOC(=O)C1=C(C)C2C3C(=O)OC(=O)C3C1(C)C1C(=O)OC(=O)C21 (stereo not given)	> 100	> 100	> 100	> 100	–	> 100	–	> 100	> 100	> 100	–	–	–	–	–	–	–	–	–	–
Cc1c2c(n3c(nc4ccccc43)c1C#N)NCC2	> 10	> 10	> 10	> 10	> 10	> 10	–	> 10	> 10	> 10	> 10	> 10	–	–	–	–	–	–	–	–
CN(CCO)c1nc(=O)c2c(n1C1OC(CO)C(O)C(O)C1O)CCCC2 (stereo not given)	> 100	> 100	> 100	> 100	–	> 100	> 100	> 100	> 100	> 100	–	–	–	–	–	–	–	–	–	–
COc1c(N2CCCCC2)c2c(=O)c3ccccc3oc2c2c3ccccc3n(C)c12	> 100	> 100	> 100	> 100	> 100	> 100	–	> 100	> 100	> 100	–	> 100	–	–	–	–	–	–	–	–
CC(C)(C)C1CCC2c3c([nH]c4ccccc34)C3C(=O)N(c4cc(Cl)ccc4Cl)C(=O)C3C2C1 (stereo not given)	> 100	> 100	> 100	> 100	> 100	> 100	–	> 100	> 100	–	–	> 100	–	–	–	–	–	–	–	–
Cc1ccc(/C=C2\CCS(=O)(=O)c3ccccc3C2=O)cc1	34.9	27.7	30.8	73.6	55.2	36.2	–	> 100	> 100	39.1	32.6	77.2	–	–	–	–	–	–	–	–
C=C1C(=O)O[C@H]2C1C[C@H](O)/C(C)=C/CC[C@@]1(C)O[C@H]21 (stereo not given in full)	40.3	31.1	23.5	23.9	37.3	–	3.43	31.5	–	38.7	–	30.3	–	–	–	–	–	–	–	–
CC(Cn1c(=O)oc2ccccc21)N(C)C (stereo not given)	> 100	> 100	> 100	> 100	> 100	> 100	–	> 100	> 100	> 100	–	> 100	–	–	–	–	–	–	–	–
N#C/C(=C\c1ccccc1F)C(=O)c1ccccc1	> 100	> 100	> 100	> 100	–	–	> 100	> 100	> 100	> 100	–	–	–	–	–	–	–	–	–	–
Cc1ccc2nc(-c3nccn3C)cc(C(=O)NC(C)CN(C)C)c2c1 (stereo not given)	> 100	> 100	> 100	> 100	> 100	> 100	–	–	> 100	> 100	> 100	> 100	–	–	–	–	–	–	–	–
Cn1cc(-c2csc(-c3cn(CCCN4CCCCC4)c4ccc(Br)cc34)n2)c2cccnc21	–	–	–	–	3.16	4.84	–	–	3.2	3.2	–	–	1740	2.07	1.75	1710	–	–	–	–
COc1c(-c2ccc(F)cc2)oc2c(CC(=O)O)cccc2c1=O	> 100	–	–	> 100	> 100	> 100	> 100	–	> 100	–	> 100	> 100	–	–	–	–	–	–	–	–
O=C(N/N=C/c1cc(Cl)cc(Cl)c1[OH2+])c1ccncc1.O=S(=O)([O-])[O-].[Fe+2]	29	35.2	0.332	41.1	–	41.9	7.44	5.98	36.4	> 100	–	–	–	–	–	–	–	–	–	–
O=C(Nc1ccccc1)c1cc2cc(CCl)ccc2oc1=O	> 100	> 100	> 100	> 100	> 100	> 100	> 100	> 100	–	> 100	> 100	–	–	–	–	–	–	–	–	–
COc1cccc2c1C(=O)c1c(O)c3c(c(O)c1C2=O)CC(O)(C(C)=O)CC3OC1OC(COC(C)=O)C(OC(C)=O)C(OC(C)=O)C1OC(C)=O (stereo not given)	27.4	> 100	> 100	> 100	> 100	–	> 100	–	39.7	> 100	> 100	–	–	–	–	–	–	–	–	–
Clc1ccc2c(c1)CC1C[N+]3=C(CCCCC3)C1=C2 (stereo not given)	> 100	> 100	> 100	> 100	> 100	> 100	> 100	–	–	> 100	> 100	> 100	–	–	–	–	–	–	–	–
COc1ccc(OC)c(CCc2ccccc2CC(=O)O)c1	> 100	> 100	> 100	> 100	–	> 100	> 100	> 100	> 100	> 100	–	–	–	–	–	–	–	–	–	–
CCC/C=C/C=C\C(=O)O[C@@H]1[C@@H](C)[C@]2(O)[C@@H]3C=C(C)C(=O)[C@H]3CC(COC(C)=O)=C[C@H]2[C@@H]2C(C)(C)[C@]12OC(C)=O	105	77.1	57.7	–	–	> 97.6	> 89.6	95.8	83.5	86.7	–	–	–	–	–	–	–	–	–	–

SMILES	TGI (EKVX NSCLC) [µM]	TGI (HCT-15 colon) [µM]	TGI (LOX IMVI melanoma) [µM]	TGI (M14 melanoma) [µM]	TGI (MDA-MB-435) [µM]	TGI (NCI-H226 lung) [µM]	TGI (NCI-H522 lung) [µM]	TGI (RPMI-8226 leukemia) [µM]	TGI (SF-539 CNS) [µM]	TGI (SK-MEL-28 melanoma) [µM]	TGI (T-47D breast) [µM]	TGI (MDA-N) [µM]	GI50 (MDA-MB-435) [nM]	GI50 (NCI-H226 lung) [µM]	GI50 (SF-539 CNS) [µM]	GI50 (SK-MEL-28 melanoma) [nM]	GI50 (HCT-15 colon) [µM]	GI50 (LOX IMVI melanoma) [µM]	GI50 (M14 melanoma) [µM]	GI50 (NCI-H522 lung) [µM]
CN(C)C1(N(C)C)Oc2c(c(=O)n(C)c(=O)n2C)C(c2ccc(F)cc2)C1(F)F (stereo not given)	> 100	> 100	> 100	> 100	> 100	> 100	–	> 100	–	> 100	> 100	–	–	–	–	–	–	–	–	–
O=C1/C(=C/c2cccc([N+](=O)[O-])c2)Cc2ccccc21	> 100	> 100	> 100	> 100	> 100	> 100	> 100	> 100	> 100	> 100	–	> 100	–	–	–	–	–	–	–	–
N#CCCN(c1ccc(C=Nc2ccc(C(=O)O)cc2)cc1)S(=O)(=O)c1ccccc1	> 100	> 100	> 100	> 100	–	> 100	> 100	> 100	> 100	> 100	–	–	–	–	–	–	–	–	–	–
Cc1cc(N(CCC#N)CCC#N)ccc1/C=C(\N=[N+]=[N-])C(=O)NC(=O)COc1ccccc1	> 100	> 100	> 100	> 100	–	> 100	> 100	> 100	> 100	> 100	–	–	–	–	–	–	–	–	–	–
O=[N+]([O-])c1ccc(C2NC(=S)NC3c4cc([N+](=O)[O-])ccc4CCCC23)cc1 (stereo not given)	> 100	> 100	> 100	> 100	> 100	> 100	> 100	> 100	> 100	> 100	> 100	–	–	–	–	–	–	–	–	–
CC1=C(N2CC2)C(=O)C(C)=C(N2CC2)C1=O	2.68	3.31	1.38	1.25	–	1.18	0.423	9.8	0.808	1.26	15.5	2.9	–	–	–	–	–	–	–	–
Nc1nc(N)c2c(-c3ccccc3)ccnc2n1	> 100	–	> 100	–	> 100	> 100	> 100	> 100	–	> 100	–	> 100	–	–	–	–	–	–	–	–
CCOC(=O)C(C(=O)OCC)S(C)(=O)=O	> 100	–	> 100	> 100	–	> 100	> 100	> 100	> 100	> 100	–	–	–	–	–	–	–	–	–	–
CC(=O)C(C(=O)C(=O)Nc1cc(Cl)c(Cl)cc1Cl)c1csc(N)n1 (stereo not given)	> 100	> 100	> 100	> 100	–	> 100	> 100	> 100	> 100	> 100	–	–	–	–	–	–	–	–	–	–
Oc1c(Cl)c(Cl)c(O)c(-c2cnc(-c3ncc(-c4c(O)c(Cl)c(Cl)c(O)c4Cl)s3)s2)c1Cl	61.5	33.3	–	47.2	47.7	14	5.43	–	81.7	75.6	> 100	–	–	–	–	–	–	–	–	–
COc1cc(Cn2c3ccccc3c3cc(C)cc(OC)c32)cc2c1[nH]c1ccccc12	–	> 25	> 25	20.2	–	> 25	21	> 25	> 25	> 25	–	–	–	17	9.83	–	16.8	8.19	6.27	5.43
c1cc2cc(Cc3ccc4[nH]ccc4c3)ccc2[nH]1	41.7	28	72.3	37.7	45.7	34.2	34.5	–	32.9	96.7	53.7	26.5	–	–	–	–	–	–	–	–
NCCCC(N)(C(=O)O)C(F)F (stereo not given)	> 1260	> 5000	> 5000	–	–	> 5000	> 5000	> 5000	> 5000	> 5000	–	–	–	–	–	–	–	–	–	–
CCCCCC1CC(C(C)=O)CN1c1ccc(F)cc1 (stereo not given)	> 100	> 100	> 100	> 100	–	–	56.5	–	> 100	> 100	–	–	–	–	–	–	–	–	–	–
Cc1cc2nc3c(C#N)c4c(c(Cl)n3c2cc1C)CCC4	> 100	37.1	32	–	42.5	> 100	32.5	51	49.5	88.9	> 100	–	–	–	–	–	–	–	–	–
CC(C)(Cl)C(Cl)CC/C(CBr)=C(\Cl)CBr (stereo not given)	30.1	3.51	0.72	3.22	5.34	5.28	3.09	–	5.53	4.38	–	3.65	–	–	–	–	–	–	–	–
O=C1CS(=O)c2ccccc2N1 (stereo not given)	> 100	> 100	> 100	> 100	–	> 100	> 100	> 100	> 100	> 100	–	–	–	–	–	–	–	–	–	–
Cc1nc2c(n1Cc1ccc(F)cc1)C(=O)c1ccccc1C2=O	> 100	> 100	> 100	> 100	–	> 100	26	–	> 100	> 100	–	–	–	–	–	–	–	–	–	–
CCn1c(=O)c2c3ccc(O)cc3[nH]c2c2ccc(O)cc21	> 100	> 100	–	> 100	> 100	> 100	> 100	–	> 100	> 100	> 100	> 100	–	–	–	–	–	–	–	–
O=C(OCC1CC(C2(O)CCCCC2)C(=O)O1)c1ccccc1 (stereo not given)	> 100	> 100	> 100	> 100	> 100	> 100	> 100	> 100	> 100	> 100	–	–	–	–	–	–	–	–	–	–
O=C(O)C1Cc2[nH]c3ccccc3c2C2CCCC12 (stereo not given)	> 100	> 100	> 100	> 100	–	> 100	> 100	–	> 100	> 100	–	–	–	–	–	–	–	–	–	–

Reference: PubChem BioAssay (NCI)
